Data: patent US10548940B2, “Pharmaceutical composition for controlling blood lipids and body weight, and use thereof” (BEIJING HEBABIZ MANAGEMENT CO., LTD, priority 2014, dated 2020)

Experiments:
hyperlipidemia rats [1] = experiment: Further study on the effect of drugs on lowering blood fat and body weight in high fat diet rats, lower doses (Examples 6); type: in vivo, Wistar rats
Method: Take ZL004, ZL051 and ZL006 (0.5% CMC-Na solution, 7.5 mg/ml, 15 mg/ml, or 30 mg/ml), take atorvastatin as positive control drug (0.5% CMC-Na solution, 0.5 mg/ml), for the following experiment.
130 Wistar rats (male weight; 150 g; feeding environment: SPF grade animal room, free feeding, 12 h light/12 h dark) after adaptive breeding for one week, were randomly divided into normal control group (10 rats) and high-fat diet group (120 rats), and each rat was then numbered. The normal control group were fed with normal diet, high fat diet group were fed with high fat diet (78.8% basal diet (purchased from Beijing, Australia to feed Co. Ltd.)+1% cholesterol, +10% egg yolk powder, +10% lard, +0.2% sodium cholate), After 30 days, after determination, the hyperlipemia rats of high fat diet group were randomly divided into 10 groups (high fat model group, atorvastatin group (atorvastatin 5 mg/kg daily administration), ZL004 high dose group (daily administration of ZL004 300 mg/kg), ZL004 middle dose group (daily administration of ZL004 150 mg/kg), ZL004 low dose group (daily administration of ZL004 75 mg/kg), ZL051 high dose group (daily administration of ZL051 300 mg/kg), ZL051 middle dose group (daily administration of ZL051 150 mg/kg), ZL051 low dose group (daily administration of ZL051 75 mg/kg), ZL006 high dose group (daily administration of ZL006 300 mg/kg), ZL006 middle dose group (daily administration of ZL006 150 mg/kg), ZL006 low dose group (daily administration of ZL006 75 mg/kg), 10 rats in each group. The normal control group and high fat model group daily orally administered 0.5% CMC-Na solution, drug admonition group were orally administered with corresponding drugs administered continuously for 30 days to determine the levels of total cholesterol (TC), triacylglycerol (TG), high density lipoprotein cholesterol (HDL-C), low density lipoprotein cholesterol (LDL-C) and weight. No safety problems found in the experiment.

hyperlipidemia rats [2] = experiment: Effect of drugs on reducing blood lipid and body weight in high fat diet rats (Examples 5); type: in vivo, Wistar rats
Method: Take the medicine ZL004, ZL005 and ZL006, 0.5% CMC-Na (carboxymethyl cellulose sodium) solution (25 mg/ml or 50 mg/ml); take atorvastatin as positive control drug (0.5% CMC-Na solution, 0.5 mg/ml), for the following experiment.
120 Wistar rats (male weight; 150 g; feeding environment: SPF grade animal room, free feeding, 12 h light/12 h dark) after adaptive breeding for one week, were randomly divided into normal control group (10 rats) and high-fat diet group (110 rats), and each rat was then numbered. The normal control group were fed with normal diet, high fat diet group were fed with high fat diet (78.8% basal diet (purchased from Beijing, Australia to feed Co. Ltd.) +1% cholesterol, +10% egg yolk powder, +10% lard, +0.2% sodium cholate), 30 days later, after determination, the hyperlipemia rats of high fat diet group were randomly divided into 10 groups (high fat model group, atorvastatin group (atorvastatin 5 mg/kg daily administration), ZL004 high dose group (daily administration of ZL004 500 mg/kg), ZL004 low dose group (daily administration of ZL004 […]), ZL005 high dose group (daily administration of ZL005 500 mg/kg), ZL005 low dose group (daily administration of ZL005 […]), ZL006 high dose group (daily administration of ZL006 500 mg/kg), ZL006 low dose group (daily administration of ZL006 […]), 10 rats in each group. The normal control group and high fat model group daily orally administered 0.5% CMC-Na solution, drug admonition group were orally administered with corresponding drugs administered continuously for 30 days to determine the levels of total cholesterol (TC), triacylglycerol (TG), high density lipoprotein cholesterol (HDL-C), low density lipoprotein cholesterol (LDL-C) and weight. No safety problems were found in the experiment.

[3] = high fat diet hyperlipidemia rats, oral daily for 30 days, 5 mg/kg, model group = 100%
[4] = high fat diet hyperlipidemia rats, oral daily for 30 days, 5 mg/kg, x ± s, n = 10
[5] = serum HDL cholesterol, high fat rats, oral daily 30 days, 5 mg/kg, model group = 100%, x ± s, n = 10
[6] = serum LDL cholesterol, high fat rats, oral daily 30 days, 5 mg/kg, model group = 100%, x ± s, n = 10
[7] = serum total cholesterol, high fat rats, oral daily 30 days, 5 mg/kg, model group = 100%, x ± s, n = 10
[8] = serum triacylglycerol, high fat rats, oral daily 30 days, 5 mg/kg, model group = 100%, x ± s, n = 10
[9] = each dose (250 and 500 mg/kg), atorvastatin 5 mg/kg, oral daily 30 days, versus model group

For `CC(C)c1c(C(=O)Nc2ccccc2)c(-c2ccccc2)c(-c2ccc(F)cc2)n1CC[C@@H](O)C[C@@H](O)CC(=O)O` [Atorvastatin, atorvastatin], the “effect on the body weight of hyperlipidemia rats (in words)” value (hyperlipidemia rats [1]; each dose (75, 150, 300 mg/kg), atorvastatin 5 mg/kg, oral daily 30 days, versus high fat model group) was “reduced the body weight, close to or even lower than the normal control group”, the “effect on HDL-C (in words)” value (hyperlipidemia rats [1]; each dose (75, 150, 300 mg/kg), atorvastatin 5 mg/kg, oral daily 30 days, versus model group) was “significantly increase” and the “body weight % (/high fat model group)” value (hyperlipidemia rats [1]; [3]) was 90.37 ± 12.13%. For the same compound, the “body weight” value (hyperlipidemia rats [1]; [4]) was 465.7 ± 62.5 g, the “effect on rat serum TC, TG, LDL-C (in words)” value (hyperlipidemia rats [1]; middle/high doses (150, 300 mg/kg), atorvastatin 5 mg/kg, oral daily 30 days, versus model group) was “significantly reduce” and the “HDL-C % (/model group)” value (hyperlipidemia rats [1]; [5]) was 176.99 ± 37.57 %. The “LDL-C % (/model group)” value (hyperlipidemia rats [1]; [6]) was 67.93 ± 29.54 %, the “TC % (/model group)” value (hyperlipidemia rats [1]; [7]) was 77.03 ± 23.18 % and the “TG % (/model group)” value (hyperlipidemia rats [1]; [8]) was 69.99 ± 17.21 %. The “effect on the body weight of hyperlipidemia rats (in words)” value (hyperlipidemia rats [2]; each dose (250 and 500 mg/kg), atorvastatin 5 mg/kg, oral daily 30 days, versus high fat model group) was “reduced the body weight, close to or even lower than the normal control group”, the “effect on HDL-C (in words)” value (hyperlipidemia rats [2]; [9]) was “significantly increase” and the “effect on rat serum TC, TG, LDL-C (in words)” value (hyperlipidemia rats [2]; [9]) was “significantly reduce”. For the same compound, the “body weight % (/high fat model group)” value (hyperlipidemia rats [2]; [3]) was 90.77 ± 9.22%, the “body weight” value (hyperlipidemia rats [2]; [4]) was 520.1 ± 52.8 g and the “HDL-C % (/model group)” value (hyperlipidemia rats [2]; [5]) was 178.57 ± 57.92 %. The “LDL-C % (/model group)” value (hyperlipidemia rats [2]; [6]) was 33.13 ± 11.62 %, the “TC % (/model group)” value (hyperlipidemia rats [2]; [7]) was 81.77 ± 14.65 % and the “TG % (/model group)” value (hyperlipidemia rats [2]; [8]) was 70.50 ± 23.19 %.
